Experimental data taken from publication PMC6164331, “Synthesis, Evaluation for Cytotoxicity and Molecular Docking Studies of Benzo[c]furan-Chalcones for Potential to Inhibit Tubulin Polymerization and/or EGFR-Tyrosine Kinase Phosphorylation” (International Journal of Molecular Sciences, 2018).
Like-named read-outs stand apart in the source and are kept apart here. Starred links: 1 amine or outer side, 2 acyl side, 3 side chain; linkers in the order of their positions; H or OH if unused. Positions of bridges follow the written chain, without caps; N, C: chain ends. Non-standard residues stand in square brackets, D forms with d. Residues, ends and D or L forms follow the SMILES beside them. Chains are numbered I, II in the order given. Actinocin(9to1) = Cc1c2oc3c(C)ccc(C(=O)[*:1])c3nc-2c(C(=O)[*:2])c(N)c1=O; NMeV = CN[C@H](C(=O)O)C(C)C; Sar = CNCC(=O)O

Assays:
tubulin = tubulin (Sus scrofa, UniProt P02550+P02554); test: Cell-free tubulin polymerization assay; type: biochemical; conditions: for IC50: colchicine as positive control, read-out: IC50 against tubulin polymerization; for inhibitory effect against tubulin polymerization (in words): compared to colchicine or to the other derivatives of the series
Experimental: Tubulin polymerization assays were carried out using the tubulin polymerization assay kit (Cytoskeleton, Inc., Denver, CO, USA) following the instruction by the manufacturer.

MCF-7 cell line = test: MTT cytotoxicity assay against the MCF-7 cell line; conditions: for IC50: read-out: MCF-7 Cell Line IC50 (μM) ± SD; for cytotoxicity against MCF-7 cells (in words): compared to actinomycin D
Experimental: The human breast cancer (MCF-7) cell line was maintained in culture flasks containing Dulbecco’s Modified Eagles Medium (DMEM). The media was supplemented with 1% antibiotics (100 µg/mL penicillin, 100 µg/mL streptomycin and 250 µg/L fungizone) and 10% heat-inactivated fetal bovine serum. […] The cells were sub-cultured every two-to-three days after the cells had formed a confluent monolayer.
The compounds were assessed at 0–100 µM. The control wells included vehicle treated cells exposed to 2% DMSO and the positive control, actinomycin D, with concentrations ranging between 5, 10, 25, and 50, and 100 µM. The microtitre plates were incubated for 48 h. After the 48 h incubation period the MTT reagent (10 µL) was added to a final concentration of 0.5 mg/mL and the plate was further incubated for another 4 h. After 4 h, 100 µL of the solubilisation solution was added to each well and the plate was allowed to stand overnight. Subsequently, the absorbance of the color complex was read at 550 nm with a reference wavelength set at 650 nm using a BIO-TEK Power-Wave XS multi-well plate reader (BioTech Instruments, Midrand, South Africa). The IC50 values of the compounds were calculated using OriginPro software (OriginLab Corporation, Northampton, MA, USA).

MCF-7 cells = test: Annexin V-Cy3 SYTOX staining apoptosis assay (flow cytometry); type: cell-based, human; conditions: for viability at 1 µM: Homo sapiens, read-out: %Viable Cells (Q3)
Text: Several distinctive modes of cell death such as apoptosis, necrosis, autophagy, and cornification exist and are characterized by differences in their morphology and their biochemical changes. […] We employed the Annexin V-Cy3 SYTOX apoptosis assay kit to distinguish between viable cells (Annexin V-negative; PI-negative), early apoptotic cells (Annexin V-positive; PI-negative), late apoptotic cells (Annexin V-positive; PI-positive) and unviable or necrotic cells (Annexin V-negative; PI-positive). The cells were analyzed by the flow cytometry, which is an important tool to evaluate the molecular and morphological events that take place during cell death and cell proliferation.
The percentage population of apoptotic cells were determined using Annexin V–Cy3 SYTOX apoptosis detection kit (Abcam, Milton, Cambridge, UK) according to the manufacturer’s instructions. […] The cells were incubated for 48 h and then stained with Annexin V–Cy3 SYTOX green dye. The cells were analyzed using BD Biosciences FACSAria III flow cytometer (BD Biosciences, San Jose, CA, USA).

Caspase-3 (Asp175) = test: Caspase-3 activation colorimetric assay in MCF-7 cells; type: cell-based, human; conditions: 1 µM, 24 h, compared to 3i and actinomycin D
Experimental: Activation of caspases (caspase-2, 3, 6, 7, 8, 9, and 10) is a major biochemical feature that plays a central role in the morphological changes associated with apoptosis. Consequently, we evaluated compounds 3b and 3i for their potential to induce caspase-3 activation in the MCF-7 cells.
Caspase-3 activity was detected by means of Caspase-3 Colorimetric Assay Kit (Abcam, Cambridge, MA, USA). The cells were cultured in 24 well plates and treated for 24 h with 3b or 3i at a concentration of 1 µM against actinomycin D (1 µM) as a reference standard, respectively. The cells were then washed with PBS buffer and lysed on ice. The experiments were carried out according to the manufacturer’s instructions. Optical density was measured at absorbance of 450 nm using the BioTek microplate reader. The concentration of active Caspase-3 (Asp 175) were measured in duplicates and interpolated from the active caspase-3 (Asp 175) standard curve and corrected for sample dilution.

EGFR-TK = target: T1, EGFR-TK (Homo sapiens, UniProt P00533); test: EGFR-TK phosphorylation inhibition assay (ELISA); type: biochemical; conditions: purified EGFR
T1 construct: purchased Sigma-Aldrich, Bradford, UK
Experimental: The procedure was carried out according to the manufacturer’s protocol and referring to reported instructions as described in our previous investigation.

[1] = MTT, 48 h incubation, three individual experiments

T1 sequence (P00533 25-1210): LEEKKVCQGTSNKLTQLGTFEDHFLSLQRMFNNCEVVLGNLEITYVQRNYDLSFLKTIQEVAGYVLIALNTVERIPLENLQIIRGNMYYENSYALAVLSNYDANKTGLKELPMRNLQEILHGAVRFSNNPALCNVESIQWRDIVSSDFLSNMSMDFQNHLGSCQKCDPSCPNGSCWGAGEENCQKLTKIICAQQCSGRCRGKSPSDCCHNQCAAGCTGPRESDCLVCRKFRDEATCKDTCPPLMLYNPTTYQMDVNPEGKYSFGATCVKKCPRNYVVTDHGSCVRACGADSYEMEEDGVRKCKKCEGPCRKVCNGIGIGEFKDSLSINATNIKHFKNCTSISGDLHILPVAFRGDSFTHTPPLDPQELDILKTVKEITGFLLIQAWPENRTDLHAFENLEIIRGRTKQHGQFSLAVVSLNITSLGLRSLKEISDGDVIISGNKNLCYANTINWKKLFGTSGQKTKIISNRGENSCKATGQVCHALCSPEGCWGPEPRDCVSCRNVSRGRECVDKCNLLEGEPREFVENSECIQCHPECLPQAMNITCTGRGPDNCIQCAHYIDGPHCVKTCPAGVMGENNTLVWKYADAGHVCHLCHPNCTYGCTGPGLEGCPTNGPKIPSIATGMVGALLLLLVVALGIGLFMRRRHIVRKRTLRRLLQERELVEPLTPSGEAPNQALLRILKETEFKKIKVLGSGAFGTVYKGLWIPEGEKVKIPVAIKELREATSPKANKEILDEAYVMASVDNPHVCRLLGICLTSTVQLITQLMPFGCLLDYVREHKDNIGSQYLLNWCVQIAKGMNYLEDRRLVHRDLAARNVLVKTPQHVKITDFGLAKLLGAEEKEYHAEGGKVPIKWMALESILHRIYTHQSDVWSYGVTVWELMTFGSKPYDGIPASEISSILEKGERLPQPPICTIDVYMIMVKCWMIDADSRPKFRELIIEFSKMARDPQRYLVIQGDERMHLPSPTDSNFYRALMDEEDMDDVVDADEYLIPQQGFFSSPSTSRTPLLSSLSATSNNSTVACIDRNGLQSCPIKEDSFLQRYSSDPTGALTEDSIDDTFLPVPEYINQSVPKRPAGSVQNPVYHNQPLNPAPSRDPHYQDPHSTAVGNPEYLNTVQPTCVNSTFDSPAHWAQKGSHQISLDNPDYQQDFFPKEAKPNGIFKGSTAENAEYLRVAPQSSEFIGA
Sequence of tubulin (P02550 whole entry): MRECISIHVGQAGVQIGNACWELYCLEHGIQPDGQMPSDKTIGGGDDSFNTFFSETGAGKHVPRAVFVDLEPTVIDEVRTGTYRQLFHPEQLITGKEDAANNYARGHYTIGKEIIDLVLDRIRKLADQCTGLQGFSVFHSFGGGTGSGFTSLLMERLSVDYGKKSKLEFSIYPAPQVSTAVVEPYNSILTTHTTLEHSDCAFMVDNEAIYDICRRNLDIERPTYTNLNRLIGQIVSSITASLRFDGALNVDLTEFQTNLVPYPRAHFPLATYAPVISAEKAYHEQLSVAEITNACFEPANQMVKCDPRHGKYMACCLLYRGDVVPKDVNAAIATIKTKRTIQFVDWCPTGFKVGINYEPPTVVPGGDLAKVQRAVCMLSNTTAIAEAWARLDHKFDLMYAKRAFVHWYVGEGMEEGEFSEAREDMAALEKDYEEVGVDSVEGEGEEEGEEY
Sequence of tubulin (P02554 whole entry): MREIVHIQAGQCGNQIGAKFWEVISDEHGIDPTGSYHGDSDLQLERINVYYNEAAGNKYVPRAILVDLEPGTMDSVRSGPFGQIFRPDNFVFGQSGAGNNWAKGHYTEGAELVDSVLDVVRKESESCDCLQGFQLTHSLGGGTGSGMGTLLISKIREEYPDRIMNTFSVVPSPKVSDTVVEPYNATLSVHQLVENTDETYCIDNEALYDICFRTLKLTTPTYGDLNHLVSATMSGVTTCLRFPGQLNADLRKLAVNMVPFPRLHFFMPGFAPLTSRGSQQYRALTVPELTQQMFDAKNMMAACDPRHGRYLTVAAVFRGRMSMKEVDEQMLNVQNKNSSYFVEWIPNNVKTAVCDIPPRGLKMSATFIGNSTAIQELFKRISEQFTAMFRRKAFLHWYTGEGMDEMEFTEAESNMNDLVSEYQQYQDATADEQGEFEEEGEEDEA

Compound | IC50 (tubulin) [µM] | melting point [°C] | IC50 (MCF-7 cell line; Homo sapiens, MCF7, 48 h) [µM] | also measured
O=C(/C=C/c1ccc(OC(F)(F)F)cc1)c1cc(Br)cc2cc(-c3ccccc3)oc12 [3e] | – | – | 0.59 ± 0.21 | –
O=C(/C=C/c1ccc(OC(F)(F)F)cc1)c1cc(Br)cc2cc(-c3ccc(F)cc3)oc12 [3j] | 0.00885 | – | – | IC50 (MCF-7 cell line; [1]): 16 ± 0.62 µM
O=C(/C=C/c1ccccc1)c1cc(Br)cc2cc(-c3cccc(F)c3)oc12 [3k] | 77 | 243 to 245 | 23 ± 0.38 | –
COc1ccc(/C=C/C(=O)c2cc(Br)cc3cc(-c4cccc(F)c4)oc23)cc1 [3n] | – | 221 to 222 | 39.2 ± 0.42 | inhibitory effect against tubulin polymerization (in words) (tubulin): Moderate activity
O=C(/C=C/c1ccc(F)cc1)c1cc(Br)cc2cc(-c3cccc(Cl)c3)oc12 [3q] | 51.3 | 232 to 233 | 23.8 ± 0.29 | –
O=C(/C=C/c1ccc(OC(F)(F)F)cc1)c1cc(Br)cc2cc(-c3cccc(Cl)c3)oc12 [3t] | 2.83 | – | – | IC50 (MCF-7 cell line; [1]): 26.6 ± 0.27 µM
COc1ccc(-c2cc3cc(Br)cc(C(=O)/C=C/c4ccccc4)c3o2)cc1 [3u] | – | 255 to 256 | 48.96 ± 0.3 | –
COc1ccc(-c2cc3cc(Br)cc(C(=O)/C=C/c4ccc(Cl)cc4)c3o2)cc1 [3w] | 48.4 | 209 to 210 | 30.6 ± 0.35 | –
COc1ccc(/C=C/C(=O)c2cc(Br)cc3cc(-c4ccc(OC)cc4)oc23)cc1 [3x] | 67.4 | 216 to 217 | 69.1 ± 0.76 | –
COc1ccc(-c2cc3cc(Br)cc(C(=O)/C=C/c4ccc(OC(F)(F)F)cc4)c3o2)cc1 [3y] | 78 | 187 to 188 | 43.17 ± 0.28 | –
Cc1c2oc3c(C)ccc(C(=O)N[C@@H]4C(=O)N[C@H](C(C)C)C(=O)N5CCC[C@H]5C(=O)N(C)CC(=O)N(C)[C@@H](C(C)C)C(=O)O[C@@H]4C)c3nc-2c(C(=O)N[C@@H]2C(=O)N[C@H](C(C)C)C(=O)N3CCC[C@H]3C(=O)N(C)CC(=O)N(C)[C@@H](C(C)C)C(=O)O[C@@H]2C)c(N)c1=O [Actinomycin D, reference compound] (I: T[dV]P[Sar][NMeV] / II: T[dV]P[Sar][NMeV]; ester I:1-I:C, II:1-II:C; linker I:N-II:N via Actinocin(9to1)) | – | – | 37.8 ± 1.3 | viability at 1 µM (MCF-7 cells; MCF7, 48 h): 30.7%; %Early Apoptosis (Q4) (MCF-7 cells; MCF-7 cells, 1 µM, 48 h): 3.4%; %Late Apoptosis (Q2) (MCF-7 cells; MCF-7 cells, 1 µM, 48 h): 61.4%; %Necrosis (Q1) (MCF-7 cells; MCF-7 cells, 1 µM, 48 h): 4.5%; IC50 (EGFR-TK): 0.04 ± 0.03 µM

More lines, in order of falling IC50 (tubulin), values ahead:

IC50 (tubulin) [µM] | melting point [°C] | Compound | IC50 (MCF-7 cell line; Homo sapiens, MCF7, 48 h) [µM] | also measured
34.5 | 206 to 208 | COc1ccc(/C=C/C(=O)c2cc(Br)cc3cc(-c4ccccc4)oc23)cc1 [3d] | 22.8 ± 0.86 | –
34.5 | 257 to 258 | O=C(/C=C/c1ccc(Cl)cc1)c1cc(Br)cc2cc(-c3cccc(Cl)c3)oc12 [3r] | 66.8 ± 0.84 | –
26.5 | – | O=C(/C=C/c1ccc(F)cc1)c1cc(Br)cc2cc(-c3ccccc3)oc12 [3b] | 0.55 ± 0.24 | viability at 1 µM (MCF-7 cells; MCF7, MCF-7 cells, 1 µM, 48 h): 23.3%; %Early Apoptosis (Q4) (MCF-7 cells; MCF-7 cells, 1 µM, 48 h): 1.5%; %Late Apoptosis (Q2) (MCF-7 cells; MCF-7 cells, 1 µM, 48 h): 72%; %Necrosis (Q1) (MCF-7 cells; MCF-7 cells, 1 µM, 48 h): 3.2%; induction of apoptosis (in words) (MCF-7 cells; MCF-7 cells, 1 µM, 48 h, compared to 3i and actinomycin D): induced increased apoptosis; caspase-3 activation (in words) (Caspase-3 (Asp175)): does not induce significant caspase activation; IC50 (EGFR-TK): 0.17 ± 0.03 µM
26.4 | 242 to 245 | O=C(/C=C/c1ccc(Cl)cc1)c1cc(Br)cc2cc(-c3ccccc3)oc12 [3c] | > 100 | –
23.3 | 224 to 226 | O=C(/C=C/c1ccccc1)c1cc(Br)cc2cc(-c3ccc(F)cc3)oc12 [3f] | 35.8 ± 1.2 | –
15.6 | – | O=C(/C=C/c1ccccc1)c1cc(Br)cc2cc(-c3ccccc3)oc12 [3a] | 48 ± 2.1 | –
13.2 | 239 to 242 | O=C(/C=C/c1ccc(F)cc1)c1cc(Br)cc2cc(-c3ccc(F)cc3)oc12 [3g] | 48.6 ± 2.1 | cytotoxicity against MCF-7 cells (in words) (MCF-7 cell line; MTT): reduced cytotoxicity
10.2 | 234 to 235 | O=C(/C=C/c1ccc(Cl)cc1)c1cc(Br)cc2cc(-c3cccc(F)c3)oc12 [3m] | 14.8 ± 0.33 | –
3.98 | 266 to 267 | O=C(/C=C/c1ccc(F)cc1)c1cc(Br)cc2cc(-c3cccc(F)c3)oc12 [3l] | > 100 | cytotoxicity against MCF-7 cells (in words) (MCF-7 cell line; MTT): inactive
1.33 | 231 to 233 | O=C(/C=C/c1ccc(Cl)cc1)c1cc(Br)cc2cc(-c3ccc(F)cc3)oc12 [3h] | 54.16 ± 0.4 | cytotoxicity against MCF-7 cells (in words) (MCF-7 cell line; MTT): reduced cytotoxicity
0.71 | 214 to 215 | COc1ccc(/C=C/C(=O)c2cc(Br)cc3cc(-c4cccc(Cl)c4)oc23)cc1 [3s] | 2.69 ± 0.23 | inhibitory effect against tubulin polymerization (in words) (tubulin): significant inhibitory effects
0.0937 | 218 to 219 | O=C(/C=C/c1ccccc1)c1cc(Br)cc2cc(-c3cccc(Cl)c3)oc12 [3p] | 12.6 ± 0.23 | inhibitory effect against tubulin polymerization (in words) (tubulin): significant inhibitory effects; IC50 (EGFR-TK): 0.17 ± 0.06 µM
0.0162 | 241 to 242 | COc1ccc(-c2cc3cc(Br)cc(C(=O)/C=C/c4ccc(F)cc4)c3o2)cc1 [3v] | 28.4 ± 0.46 | IC50 (EGFR-TK): 0.15 ± 0.02 µM
0.000176 | 186 to 187 | O=C(/C=C/c1ccc(OC(F)(F)F)cc1)c1cc(Br)cc2cc(-c3cccc(F)c3)oc12 [3o, (E)-1-(5-Bromo-2-(3-fluorophenyl)benzofuran-7-yl)-3-(4-(trifluoromethoxy)phenyl)prop-2-en-1-one] | 7.87 ± 0.25 | IC50 (EGFR-TK): 0.12 ± 0.04 µM
5.51e-05 | – | COc1ccc(/C=C/C(=O)c2cc(Br)cc3cc(-c4ccc(F)cc4)oc23)cc1 [3i, (E)-1-(5-Bromo-2-(4-fluorophenyl)benzofuran-7-yl)-3-(4-methoxyphenyl)prop-2-en-1-one] | 0.000355 | viability at 1 µM (MCF-7 cells; MCF7, MCF-7 cells, 1 µM, 48 h): 32.2%; %Early Apoptosis (Q4) (MCF-7 cells; MCF-7 cells, 1 µM, 48 h): 3.1%; %Late Apoptosis (Q2) (MCF-7 cells; MCF-7 cells, 1 µM, 48 h): 61.7%; %Necrosis (Q1) (MCF-7 cells; MCF-7 cells, 1 µM, 48 h): 3.1%; IC50 (EGFR-TK): 0.09 ± 0.03 µM
